In ChEMBL document CHEMBL2146376, “'Inverted' analogs of the antibiotic gramicidin S with an improved biological profile” (Bioorg Med Chem, 2012):
In brackets after ≈: the same amount, converted by molar mass. Square brackets hold non-standard residues; d marks the D form. Peptide text beside a SMILES is read from it. Gly(1-adamantyl) = N[C@H](C(=O)O)C12CC3CC(CC(C3)C1)C2; Orn = NCCC[C@H](N)C(=O)O

Experiments:
Enterococcus faecalis = assay: Antibacterial activity against Enterococcus faecalis ATCC 29212 after 24 hrs by broth dilution method; assay type: functional; settings: ATCC 29212, 24 h
Escherichia coli = assay: Antibacterial activity against Escherichia coli ATCC 25922 after 24 hrs by broth dilution method; assay type: functional; settings: ATCC 25922, 24 h
[1] = test system: Staphylococcus epidermidis; assay: Antibacterial activity against Staphylococcus epidermidis ATCC 12228 after 24 hrs by broth dilution method; assay type: functional; settings: ATCC 12228, 24 h
Staphylococcus aureus [2] = assay: Antibacterial activity against PVL-positive and non-typable methicillin-resistant Staphylococcus aureus USA300-1110301146 after 24 hrs by broth dilution method; assay type: functional; settings: USA300-1110301146, 24 h
Bacillus cereus = assay: Antibacterial activity against Bacillus cereus ATCC 11778 after 24 hrs by broth dilution method; assay type: functional; settings: ATCC 11778, 24 h
Staphylococcus aureus [3] = assay: Antibacterial activity against PVL-deficient and non-typable methicillin-resistant Staphylococcus aureus N133-T034 after 24 hrs by broth dilution method; assay type: functional; settings: N133-T034, 24 h
Staphylococcus aureus [4] = assay: Antibacterial activity against PVL-positive and non-typable methicillin-resistant Staphylococcus aureus 1110301981H-T034 after 24 hrs by broth dilution method; assay type: functional
Staphylococcus aureus [5] = assay: Antibacterial activity against Staphylococcus aureus ATCC 29213 after 24 hrs by broth dilution method; assay type: functional; settings: ATCC 29213, 24 h
Staphylococcus aureus [6] = assay: Antibacterial activity against PVL-deficient and non-typable methicillin-resistant Staphylococcus aureus N229-T034 after 24 hrs by broth dilution method; assay type: functional; settings: N229-T034, 24 h
[7] = Toxicity in human erythrocytes assessed as concentration required to achieve 100% hemolysis after 4 hrs; assay type: cell-based; settings: erythrocyte
Pseudomonas aeruginosa = assay: Antibacterial activity against Pseudomonas aeruginosa ATCC 27853 after 24 hrs by broth dilution method; assay type: functional; settings: ATCC 27853, 24 h

Compound	MIC (Enterococcus faecalis) [µg/mL]	MIC (Escherichia coli) [µg/mL]	MIC [1] [µg/mL]	MIC (Staphylococcus aureus [2]) [µg/mL]	MIC (Bacillus cereus) [µg/mL]	MIC (Staphylococcus aureus [3]) [µg/mL]	MIC (Staphylococcus aureus [4]) [µg/mL]	MIC (Staphylococcus aureus [5]) [µg/mL]	MIC (Staphylococcus aureus [6]) [µg/mL]	Activity [7] [µM]	MIC (Pseudomonas aeruginosa) [µg/mL]
CC(C)[C@@H]1NC(=O)[C@H](CCCN)NC(=O)[C@@H]2CCCN2C(=O)[C@@H](Cc2ccccc2)NC(=O)[C@H](CCCN)NC(=O)[C@H](C(C)C)NC(=O)[C@H](CCCN)NC(=O)[C@@H]2CCCN2C(=O)[C@@H](Cc2ccccc2)NC(=O)[C@H](CCCN)NC1=O	> 64	> 64	64 (≈ 56 µM)	> 64	> 64	> 64	> 64	> 64	> 64	> 500	> 64
CC(C)[C@@H]1NC(=O)[C@H](CCCN)NC(=O)[C@@H]2CCCN2C(=O)[C@@H](Cc2ccccc2)NC(=O)[C@H](CCCN)NC(=O)[C@H](C(C)(C)C)NC(=O)[C@H](CCCN)NC(=O)[C@@H]2CCCN2C(=O)[C@@H](Cc2ccccc2)NC(=O)[C@H](CCCN)NC1=O	> 64	> 64	64 (≈ 55.3 µM)	> 64	> 64	> 64	> 64	> 64	> 64	> 500	> 64
CC(C)C[C@@H]1NC(=O)[C@H](CCCN)NC(=O)[C@@H]2CCCN2C(=O)[C@@H](Cc2ccccc2)NC(=O)[C@H](CCCN)NC(=O)[C@H](CC(C)C)NC(=O)[C@H](CCCN)NC(=O)[C@@H]2CCCN2C(=O)[C@@H](Cc2ccccc2)NC(=O)[C@H](CCCN)NC1=O	> 64	> 64	64 (≈ 54.6 µM)	–	> 64	–	–	> 64	–	> 500	> 64
CC(C)C[C@@H]1NC(=O)[C@H](CCCN)NC(=O)[C@@H]2CCCN2C(=O)[C@@H](Cc2ccccc2)NC(=O)[C@H](CCCN)NC(=O)[C@H](CC(C)(C)C)NC(=O)[C@H](CCCN)NC(=O)[C@@H]2CCCN2C(=O)[C@@H](Cc2ccccc2)NC(=O)[C@H](CCCN)NC1=O	> 64	> 64	16 (≈ 13.5 µM)	> 64	> 64	> 64	> 64	> 64	> 64	> 500	> 64
CC(C)(C)[C@@H]1NC(=O)[C@H](CCCN)NC(=O)[C@@H]2CCCN2C(=O)[C@@H](Cc2ccccc2)NC(=O)[C@H](CCCN)NC(=O)[C@H](C(C)(C)C)NC(=O)[C@H](CCCN)NC(=O)[C@@H]2CCCN2C(=O)[C@@H](Cc2ccccc2)NC(=O)[C@H](CCCN)NC1=O	> 64	> 64	64 (≈ 54.6 µM)	> 64	> 64	> 64	> 64	> 64	> 64	> 500	> 64
CC(C)(C)C[C@@H]1NC(=O)[C@H](CCCN)NC(=O)[C@@H]2CCCN2C(=O)[C@@H](Cc2ccccc2)NC(=O)[C@H](CCCN)NC(=O)[C@H](CC(C)(C)C)NC(=O)[C@H](CCCN)NC(=O)[C@@H]2CCCN2C(=O)[C@@H](Cc2ccccc2)NC(=O)[C@H](CCCN)NC1=O	> 64	> 64	16 (≈ 13.3 µM)	> 64	> 64	> 64	> 64	> 64	> 64	> 500	64 (≈ 53.4 µM)
CC(C)[C@@H]1NC(=O)[C@H](CCCN)NC(=O)[C@@H]2CCCN2C(=O)[C@@H](Cc2ccccc2)NC(=O)[C@H](CCCN)NC(=O)[C@H](C23CC4CC(CC(C4)C2)C3)NC(=O)[C@H](CCCN)NC(=O)[C@@H]2CCCN2C(=O)[C@@H](Cc2ccccc2)NC(=O)[C@H](CCCN)NC1=O	> 64	> 64	16 (≈ 12.9 µM)	> 64	64 (≈ 51.8 µM)	> 64	> 64	64 (≈ 51.8 µM)	> 64	> 500	64 (≈ 51.8 µM)
CC(C)C[C@@H]1NC(=O)[C@H](CCCN)NC(=O)[C@@H]2CCCN2C(=O)[C@@H](Cc2ccccc2)NC(=O)[C@H](CCCN)NC(=O)[C@H](CC23CC4CC(CC(C4)C2)C3)NC(=O)[C@H](CCCN)NC(=O)[C@@H]2CCCN2C(=O)[C@@H](Cc2ccccc2)NC(=O)[C@H](CCCN)NC1=O	64 (≈ 50.6 µM)	64 (≈ 50.6 µM)	4 (≈ 3.17 µM)	32 (≈ 25.3 µM)	16 (≈ 12.7 µM)	32 (≈ 25.3 µM)	64 (≈ 50.6 µM)	64 (≈ 50.6 µM)	32 (≈ 25.3 µM)	> 500	16 (≈ 12.7 µM)
CC(C)(C)[C@@H]1NC(=O)[C@H](CCCN)NC(=O)[C@@H]2CCCN2C(=O)[C@@H](Cc2ccccc2)NC(=O)[C@H](CCCN)NC(=O)[C@H](C23CC4CC(CC(C4)C2)C3)NC(=O)[C@H](CCCN)NC(=O)[C@@H]2CCCN2C(=O)[C@@H](Cc2ccccc2)NC(=O)[C@H](CCCN)NC1=O	> 64	32 (≈ 25.6 µM)	4 (≈ 3.2 µM)	64 (≈ 51.2 µM)	32 (≈ 25.6 µM)	64 (≈ 51.2 µM)	64 (≈ 51.2 µM)	64 (≈ 51.2 µM)	64 (≈ 51.2 µM)	> 500	32 (≈ 25.6 µM)
CC(C)(C)C[C@@H]1NC(=O)[C@H](CCCN)NC(=O)[C@@H]2CCCN2C(=O)[C@@H](Cc2ccccc2)NC(=O)[C@H](CCCN)NC(=O)[C@H](CC23CC4CC(CC(C4)C2)C3)NC(=O)[C@H](CCCN)NC(=O)[C@@H]2CCCN2C(=O)[C@@H](Cc2ccccc2)NC(=O)[C@H](CCCN)NC1=O	32 (≈ 25 µM)	16 (≈ 12.5 µM)	4 (≈ 3.13 µM)	16 (≈ 12.5 µM)	4 (≈ 3.13 µM)	16 (≈ 12.5 µM)	16 (≈ 12.5 µM)	16 (≈ 12.5 µM)	16 (≈ 12.5 µM)	500	16 (≈ 12.5 µM)
CCCCCCCCCC[C@@H]1NC(=O)[C@H](CCCN)NC(=O)[C@@H]2CCCN2C(=O)[C@@H](Cc2ccccc2)NC(=O)[C@H](CCCN)NC(=O)[C@H](C(C)C)NC(=O)[C@H](CCCN)NC(=O)[C@@H]2CCCN2C(=O)[C@@H](Cc2ccccc2)NC(=O)[C@H](CCCN)NC1=O	16 (≈ 12.9 µM)	16 (≈ 12.9 µM)	8 (≈ 6.44 µM)	8 (≈ 6.44 µM)	4 (≈ 3.22 µM)	8 (≈ 6.44 µM)	16 (≈ 12.9 µM)	16 (≈ 12.9 µM)	8 (≈ 6.44 µM)	500	16 (≈ 12.9 µM)
NCCC[C@@H]1NC(=O)[C@H](CC23CC4CC(CC(C4)C2)C3)NC(=O)[C@H](CCCN)NC(=O)[C@@H]2CCCN2C(=O)[C@@H](Cc2ccccc2)NC(=O)[C@H](CCCN)NC(=O)[C@H](CC23CC4CC(CC(C4)C2)C3)NC(=O)[C@H](CCCN)NC(=O)[C@@H]2CCCN2C(=O)[C@@H](Cc2ccccc2)NC1=O	8 (≈ 5.9 µM)	8 (≈ 5.9 µM)	4 (≈ 2.95 µM)	8 (≈ 5.9 µM)	8 (≈ 5.9 µM)	8 (≈ 5.9 µM)	8 (≈ 5.9 µM)	8 (≈ 5.9 µM)	8 (≈ 5.9 µM)	62.5	16 (≈ 11.8 µM)
CCCCCCCCCC[C@@H]1NC(=O)[C@H](CCCN)NC(=O)[C@@H]2CCCN2C(=O)[C@@H](Cc2ccccc2)NC(=O)[C@H](CCCN)NC(=O)[C@H](CCCCCCCCCC)NC(=O)[C@H](CCCN)NC(=O)[C@@H]2CCCN2C(=O)[C@@H](Cc2ccccc2)NC(=O)[C@H](CCCN)NC1=O	32 (≈ 23.9 µM)	64 (≈ 47.8 µM)	4 (≈ 2.99 µM)	64 (≈ 47.8 µM)	8 (≈ 5.97 µM)	64 (≈ 47.8 µM)	64 (≈ 47.8 µM)	64 (≈ 47.8 µM)	64 (≈ 47.8 µM)	62.5	64 (≈ 47.8 µM)
NCCC[C@@H]1NC(=O)[C@H](C23CC4CC(CC(C4)C2)C3)NC(=O)[C@H](CCCN)NC(=O)[C@@H]2CCCN2C(=O)[C@@H](Cc2ccccc2)NC(=O)[C@H](CCCN)NC(=O)[C@H](C23CC4CC(CC(C4)C2)C3)NC(=O)[C@H](CCCN)NC(=O)[C@@H]2CCCN2C(=O)[C@@H](Cc2ccccc2)NC1=O (cyclo([Orn][dF]P[Orn][Gly(1-adamantyl)][Orn][dF]P[Orn][Gly(1-adamantyl)]))	8 (≈ 6.03 µM)	8 (≈ 6.03 µM)	4 (≈ 3.01 µM)	8 (≈ 6.03 µM)	8 (≈ 6.03 µM)	8 (≈ 6.03 µM)	8 (≈ 6.03 µM)	8 (≈ 6.03 µM)	8 (≈ 6.03 µM)	500	16 (≈ 12.1 µM)
CC(C)C[C@@H]1NC(=O)[C@H](CCCN)NC(=O)[C@H](C(C)C)NC(=O)[C@@H]2CCCN2C(=O)[C@@H](Cc2ccccc2)NC(=O)[C@H](CC(C)C)NC(=O)[C@H](CCCN)NC(=O)[C@H](C(C)C)NC(=O)[C@@H]2CCCN2C(=O)[C@@H](Cc2ccccc2)NC1=O [GRAMICIDIN S] (cyclo(L[dF]PV[Orn]L[dF]PV[Orn]))	16 (≈ 14 µM)	32 (≈ 28 µM)	8 (≈ 7.01 µM)	8 (≈ 7.01 µM)	8 (≈ 7.01 µM)	8 (≈ 7.01 µM)	8 (≈ 7.01 µM)	8 (≈ 7.01 µM)	8 (≈ 7.01 µM)	31.3	64 (≈ 56.1 µM)
